Structures can show the parent of a compound that is named as a salt.
What was measured:
[1] = Sensory evaluation of malodor prevention ability of group A against hexanal odor; parameters: species or system people; conditions: scale 0 (no malodor felt) to 10 (very strong); hexanal alone rated 8; 10 μL hexanal diluted 100 times + 1 μL test substance, 1 hour room temperature; average of panel of 20
Description: The malodor prevention ability of a test substance was confirmed by sensory evaluation. As malodor, 10 μL of hexanal diluted 100 times with dipropylene glycol and 1 μL of the test substance were dropped into a cotton ball, which was charged into a plastic bottle. The bottle was left standing at room temperature for 1 hour to allow odor molecules to sufficiently volatilize inside the bottle. A sensory evaluation test was performed by a panel of 20 people, a malodor intensity when the malodor was dropped alone was rated as 8, and the odor intensity when the test substance was mixed was evaluated from 0 (no malodor was felt) to 10 (very strong malodor was felt). An average value was calculated from the obtained numerical values.

[2] = Sensory evaluation of fragrance compositions against model body odor; parameters: species or system people; conditions: each malodor (model body odor, model nursing care odor); substance in floral base fragrance composition
Description: TEC in the tables indicates triethyl citrate. […] Note that, a grouping method and the ratio within the groups are optional and are not limited by Table 9. Floral bases in Table 2 to Table 8 were prepared according to Table 10.
The malodor prevention ability of these fragrance compositions was confirmed by sensory evaluation. As for malodor, model body odor and model nursing care odor containing hexanal as one of key components were prepared according to Table 11 and Table 12. 10 μL of each model malodor and 1 μL of the fragrances 1 to 60 as test substances were dropped into a cotton ball, which was charged into a plastic bottle. The bottle was left standing at room temperature for 30 minutes to allow odor molecules to sufficiently volatilize inside the bottle. A sensory evaluation test was performed by a panel of 20 people, the discomfort when the malodor was dropped alone was rated as −3, and the discomfort when the test substance was mixed was evaluated from −4 (extremely discomfortable) to +4 (extremely comfortable). An average value was calculated from the obtained numerical values.

Row | SMILES | Hexanal odor intensity [1] | effect on reducing the discomfort due to malodor (in words) [2]
1 | O=C1CCCC=CCCCCCCCCCC1 [Ambretone, 5-cyclohexadecenone] | 3.5 | reduced the discomfort due to each malodor
2 | CC1CCC(C(C)C)C(OCC(O)CO)C1 (stereo not shown) [COOLACT 10, 3-(menthoxy)propane-1,2-diol] | 3.3 | –
3 | C=C(C)C1CC=C(C)C(=O)C1 (stereo not shown) [Carvone, reference compound] | 7.1 | –
4 | CCCC(O)CCC1C(C)CCCC1(C)C (stereo not shown) [Dextramber, 1-(2,2,6-trimethylcyclohexyl)hexan-3-ol] | 3.0 | reduced the discomfort due to each malodor
5 | CCCCCC1C(=O)CCC1CC(=O)OC (stereo not shown) [Hedione, methyl (2-pentyl-3-oxo-cyclopentyl) acetate] | 4.2 | reduced the discomfort due to each malodor
6 | CC(=CCC1CC=C(C)C1(C)C)CO (stereo not shown) [Hindinol, 2-methyl-4-(2,2,3-trimethyl-3-cyclopentenyl)-2-buten-1-ol] | 3.9 | reduced the discomfort due to each malodor
7 | C=C(C)[C@@H]1CC[C@@H](C)C[C@H]1O [Isopulegol, isopulegol] | 3.4 | reduced the discomfort due to each malodor
8 | CC(C)[C@@H]1CC[C@@H](C)CC1=O [Menthone, reference compound] | 6.9 | –
9 | CC(=O)C1(C)CC2=C(CCCC2(C)C)CC1C (stereo not shown) [Orbitone, 2-acetyl-2,3,8,8-tetramethyloctarine] | 3.9 | reduced the discomfort due to each malodor
10 | CC(c1ccccc1)C1CC1C(C)(C)O (stereo not shown) [Pamplefix, 50% triethyl citrate solution, dimethyl-2-(1-phenylethyl)cyclopropylmethanol] | 4.1 | reduced the discomfort due to each malodor
11 | CC1=CCC(C(C)C)C=C1 (stereo not shown) [Phellandrene, p-mentha-1,5-diene] | 4.1 | reduced the discomfort due to each malodor
12 | CCOC(=O)C1C(C)CCCC1(C)C (stereo not shown) [Thesaron, ethyl 2,2,6-trimethylcyclohexane-1-carboxylate] | 2.6 | reduced the discomfort due to each malodor
13 | CCOC(=O)C(C)C(C)S (stereo not shown) [ethyl 3-mercapto-2-methylbutyrate] | 3.1 | reduced the discomfort due to each malodor
14 | CC(=O)C(C)=CC1C(C)=CCCC1(C)C (stereo not drawn) [α-isomethylionone, 3-methyl-4-(2,6,6-trimethyl-2-cyclohexen-1-yl)-3-buten-2-one] | 3.1 | reduced the discomfort due to each malodor
